Laboratory results reported in PubChem BioAssay AID248 (DTP/NCI, 2004).
Inconclusive results and toxic doses are left out. No stated cut-off is given here; in the data, active means T/C of 150% or more; inactive means T/C below 125%.

Test system: L1210 leukemia ip in BDF1 mice, survival T/C
Assay: NCI In Vivo Anticancer Drug Screen. Data for tumor model L1210 Leukemia (intraperitoneal) in B6D2F1 (BDF1) mice
Details: endpoint: mean survival time, higher = longer survival
How it was run: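 Tumor cells were implanted, animals were treated, and survival was followed. The result divides the treated measurement by the vehicle-control measurement.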

[1] = dose: 12.5 mg/kg/injection, schedule: Q04DX003 (ip), vehicle: Klucel (hydroxypropylcellulose) (HPC)
[2] = dose: 25.0 mg/kg/injection, schedule: Q04DX003 (ip), vehicle: Klucel (hydroxypropylcellulose) (HPC)
[3] = dose: 50.0 mg/kg/injection, schedule: Q04DX003 (ip), vehicle: Klucel (hydroxypropylcellulose) (HPC)
[4] = dose: 100.0 mg/kg/injection, schedule: Q04DX003 (ip), vehicle: Klucel (hydroxypropylcellulose) (HPC)
[5] = dose: 100.0 mg/kg/injection, schedule: Q01DX001 (ip), vehicle: saline
[6] = dose: 100.0 mg/kg/injection, schedule: Q01DX001 (ip), vehicle: acetone
[7] = dose: 100.0 mg/kg/injection, schedule: Q01DX009 (ip), vehicle: saline
[8] = dose: 200.0 mg/kg/injection, schedule: Q01DX001 (ip), vehicle: acetone
[9] = dose: 200.0 mg/kg/injection, schedule: Q01DX009 (ip), vehicle: saline
[10] = dose: 400.0 mg/kg/injection, schedule: Q01DX001 (ip), vehicle: acetone
[11] = dose: 400.0 mg/kg/injection, schedule: Q01DX009 (ip), vehicle: saline
[12] = dose: 100.0 mg/kg/injection, schedule: Q04DX002 (ip), vehicle: saline with Tween-80
[13] = dose: 200.0 mg/kg/injection, schedule: Q04DX002 (ip), vehicle: saline with Tween-80
[14] = dose: 400.0 mg/kg/injection, schedule: Q04DX002 (ip), vehicle: saline with Tween-80
[15] = dose: 100.0 mg/kg/injection, schedule: Q01DX001 (ip), vehicle: Klucel (hydroxypropylcellulose) (HPC)
[16] = dose: 200.0 mg/kg/injection, schedule: Q01DX001 (ip), vehicle: Klucel (hydroxypropylcellulose) (HPC)
[17] = dose: 400.0 mg/kg/injection, schedule: Q01DX001 (ip), vehicle: Klucel (hydroxypropylcellulose) (HPC)

Measured: T/C

CCCCCCCCCCCCCCCCCC[n+]1cccc(C(=O)N2CCOCC2)c1
inactive: dose: 2.0 mg/kg/injection, schedule: Q01DX009 (ip), vehicle: Klucel (hydroxypropylcellulose) (HPC) 97 % of control | dose: 4.0 mg/kg/injection, schedule: Q01DX009 (ip), vehicle: Klucel (hydroxypropylcellulose) (HPC) 110 % of control | dose: 8.0 mg/kg/injection, schedule: Q01DX009 (ip), vehicle: Klucel (hydroxypropylcellulose) (HPC) 98 % of control | [1] 88 % of control | dose: 16.0 mg/kg/injection, schedule: Q01DX009 (ip), vehicle: Klucel (hydroxypropylcellulose) (HPC) 104 % of control | [2] 96 % of control | dose: 32.0 mg/kg/injection, schedule: Q01DX009 (ip), vehicle: Klucel (hydroxypropylcellulose) (HPC) 90 % of control | [3] 93 % of control | [4] 92 % of control

C=Cc1ccccc1 (tested in a mixture with another compound)
inactive: dose: 75.0 mg/kg/injection, schedule: Q01DX001 (ip), vehicle: other 101 % of control | dose: 150.0 mg/kg/injection, schedule: Q01DX001 (ip), vehicle: other 97 % of control | dose: 300.0 mg/kg/injection, schedule: Q01DX001 (ip), vehicle: other 87 % of control

CCOC(=O)CCC(=O)C(=O)OCC
inactive: [5] 92 % of control | dose: 200.0 mg/kg/injection, schedule: Q01DX001 (ip), vehicle: saline 102 % of control | dose: 400.0 mg/kg/injection, schedule: Q01DX001 (ip), vehicle: saline 92 % of control

Nc1ncnc2[nH]c(=O)[nH]c12
inactive: dose: 25.0 mg/kg/injection, schedule: Q04DX003 (ip), vehicle: saline 105 % of control | dose: 50.0 mg/kg/injection, schedule: Q04DX003 (ip), vehicle: saline 102 % of control | dose: 100.0 mg/kg/injection, schedule: Q04DX003 (ip), vehicle: saline 98 % of control

O=S(=O)(CC(Cl)c1ccccc1)c1ccccc1 (stereo not given)
inactive: [6] 95 % of control | [7] 91 % of control | [8] 98 % of control | [9] 94 % of control | [10] 92 % of control | [11] 89 % of control

O=S(=O)(/C=C/c1ccc(-c2ccccc2)cc1)c1ccccc1
inactive: [6] 101 % of control | [7] 94 % of control | dose: 100.0 mg/kg/injection, schedule: Q04DX003 (ip), vehicle: acetone 108 % of control | [8] 89 % of control | [9] 96 % of control | dose: 200.0 mg/kg/injection, schedule: Q04DX003 (ip), vehicle: acetone 96 % of control | [10] 98 % of control | [11] 96 % of control | dose: 400.0 mg/kg/injection, schedule: Q04DX003 (ip), vehicle: acetone 96 % of control

CC(=O)OCCc1ccc(Cl)cc1
inactive: [12] 93 % of control | [13] 96 % of control | [14] 100 % of control

CC12C=CC(=O)C=C1CCC1C2C(O)CC2(C)C1CCC2(O)C(=O)COC(=O)CCCc1ccc(N(CCCl)CCCl)cc1 (stereo not given)
inactive: dose: 12.5 mg/kg/injection, schedule: Q01DX009 (ip), vehicle: Klucel (hydroxypropylcellulose) (HPC) 116 % of control | [1] 97 % of control | dose: 15.0 mg/kg/injection, schedule: Q01DX009 (ip), vehicle: saline with Tween-80 107 % of control | dose: 25.0 mg/kg/injection, schedule: Q01DX009 (ip), vehicle: Klucel (hydroxypropylcellulose) (HPC) 122 % of control | [2] 110 % of control | dose: 30.0 mg/kg/injection, schedule: Q01DX009 (ip), vehicle: saline with Tween-80 114 % of control | dose: 50.0 mg/kg/injection, schedule: Q01DX009 (ip), vehicle: Klucel (hydroxypropylcellulose) (HPC) 124 % of control | [3] 109 % of control | dose: 60.0 mg/kg/injection, schedule: Q01DX009 (ip), vehicle: saline with Tween-80 108 % of control | dose: 75.0 mg/kg/injection, schedule: Q01DX001 (sc), vehicle: steriod suspending solution 103 % of control | dose: 150.0 mg/kg/injection, schedule: Q01DX001 (sc), vehicle: steriod suspending solution 111 % of control | dose: 300.0 mg/kg/injection, schedule: Q01DX001 (sc), vehicle: steriod suspending solution 108 % of control

Cc1ccc(S/N=C/c2c(O)ccc3ccccc23)cc1
inactive: dose: 100.0 mg/kg/injection, schedule: Q04DX002 (ip), vehicle: other 91 % of control | dose: 200.0 mg/kg/injection, schedule: Q04DX002 (ip), vehicle: other 102 % of control | dose: 400.0 mg/kg/injection, schedule: Q04DX002 (ip), vehicle: other 94 % of control

CCCCC(=C/C(C)(C)C)/C(=C/C(C)(C)C)CCCC
inactive: dose: 150.0 mg/kg/injection, schedule: Q01DX009 (ip), vehicle: saline 88 % of control | dose: 300.0 mg/kg/injection, schedule: Q01DX009 (ip), vehicle: saline 88 % of control

CCOC(=O)CC(SP(=S)(Oc1ccccc1)Oc1ccccc1)C(=O)OCC (stereo not given)
inactive: dose: 100.0 mg/kg/injection, schedule: Q04DX002 (sc), vehicle: olive oil, sesame oil, peanut oil 100 % of control | dose: 200.0 mg/kg/injection, schedule: Q04DX002 (sc), vehicle: olive oil, sesame oil, peanut oil 103 % of control | dose: 400.0 mg/kg/injection, schedule: Q04DX002 (sc), vehicle: olive oil, sesame oil, peanut oil 93 % of control

CC[N+](CC)(CC)CCCC[P+](CC)(CC)CC
inactive: dose: 12.0 mg/kg/injection, schedule: Q04DX003 (ip), vehicle: other 95 % of control | dose: 25.0 mg/kg/injection, schedule: Q04DX003 (ip), vehicle: other 90 % of control | dose: 50.0 mg/kg/injection, schedule: Q04DX003 (ip), vehicle: other 93 % of control

O=C(O)CC1(c2ccccc2)OC(=O)c2ccccc21 (stereo not given)
inactive: dose: 50.0 mg/kg/injection, schedule: Q04DX002 (ip), vehicle: saline with Tween-80 92 % of control | [12] 92 % of control | [13] 99 % of control | [14] 89 % of control

O=[N+]([O-])c1ccc(OCCO)c([N+](=O)[O-])c1
inactive: dose: 50.0 mg/kg/injection, schedule: Q04DX003 (ip), vehicle: saline with Tween-80 104 % of control | dose: 100.0 mg/kg/injection, schedule: Q04DX003 (ip), vehicle: saline with Tween-80 104 % of control | dose: 200.0 mg/kg/injection, schedule: Q04DX003 (ip), vehicle: saline with Tween-80 103 % of control

COC(=O)c1ccc(OCCOc2ccc(C(C)(C)CC(C)(C)C)cc2)c(N)c1
inactive: dose: 100.0 mg/kg/injection, schedule: Q01DX009 (ip), vehicle: Klucel (hydroxypropylcellulose) (HPC) 97 % of control | dose: 200.0 mg/kg/injection, schedule: Q01DX009 (ip), vehicle: Klucel (hydroxypropylcellulose) (HPC) 105 % of control | dose: 400.0 mg/kg/injection, schedule: Q01DX009 (ip), vehicle: Klucel (hydroxypropylcellulose) (HPC) 91 % of control

CCCCOc1ccc(C(N)=S)c2ccccc12
inactive: [15] 105 % of control | [16] 112 % of control | [17] 94 % of control

CCCCCCCCCCCCCCCCNC(=S)Nc1ccc(C(=O)O)cc1
inactive: dose: 12.0 mg/kg/injection, schedule: Q04DX003 (ip), vehicle: Klucel (hydroxypropylcellulose) (HPC) 94 % of control | [2] 104 % of control | [3] 102 % of control | [15] 95 % of control | [4] 96 % of control | [16] 101 % of control | dose: 200.0 mg/kg/injection, schedule: Q04DX003 (ip), vehicle: Klucel (hydroxypropylcellulose) (HPC) 93 % of control | [17] 105 % of control

CC1=CC(=O)OC2(C1)CC1CCC2CN1C (stereo not given)
inactive: dose: 50.0 mg/kg/injection, schedule: Q01DX001 (ip), vehicle: saline 95 % of control | [5] 101 % of control

Cc1ccc(S(=O)(=O)OCC2C3C=CC(C4C=CC43)C2COS(=O)(=O)c2ccc(C)cc2)cc1 (stereo not given)
inactive: dose: 100.0 mg/kg/injection, schedule: Q04DX002 (ip), vehicle: Klucel (hydroxypropylcellulose) (HPC) 94 % of control | dose: 200.0 mg/kg/injection, schedule: Q04DX002 (ip), vehicle: Klucel (hydroxypropylcellulose) (HPC) 98 % of control | dose: 400.0 mg/kg/injection, schedule: Q04DX002 (ip), vehicle: Klucel (hydroxypropylcellulose) (HPC) 98 % of control
